Columns and labels:
[1] = refractive index (Na D-line) (dimensionless); conditions: 303.15 K; 101.33 kPa; Liquid
[2] = 101.3 kPa, Liquid
[3] = refractive index (Na D-line) (dimensionless); xn = mol fraction of the nth substance listed; conditions: 303.15 K, 101.3 kPa, Liquid
[4] = xn = mol fraction of the nth substance listed; conditions: 101.3 kPa, Liquid

C1COCCO1 [1,4-dioxane]
Conditions	refractive index
[1]	1.4181

[2]
Conditions	mass density [kg/m3]	viscosity [mPa·s]
303.15 K	1024.63	1.022
313.15 K	1013.3	0.871
323.15 K	1001.9	0.807

C1COCCO1 [1,4-dioxane] + O
[3]
Conditions	refractive index
x2 = 0	1.4181
x2 = 0.3523	1.4116
x2 = 0.5503	1.4046
x2 = 0.6772	1.3972
x2 = 0.7654	1.391
x2 = 0.8304	1.3865
x2 = 0.8801	1.3798
x2 = 0.9195	1.3698
x2 = 0.9514	1.3517
x2 = 0.9778	1.3417

mass density [kg/m3], [4]
Conditions	x2 = 0	x2 = 0.3523	x2 = 0.5503	x2 = 0.6772	x2 = 0.7654	x2 = 0.8304	x2 = 0.8801	x2 = 0.9195	x2 = 0.9514	x2 = 0.9778
303.15 K	1024.63	1029.1	1032.4	1033.83	1033.22	1030.5	1025.6	1019.51	1012.1	1004.1
313.15 K	1013.3	1018.5	1022.6	1024.7	1024.7	1022.7	1018.7	1013.4	1006.9	999.8
323.15 K	1001.9	1007.8	1012.5	1015.2	1015.9	1014.6	1011.4	1006.9	1001.3	994.9

C1CCOC1 [tetrahydrofuran]
Conditions	refractive index
[1]	1.4048

[2]
Conditions	mass density [kg/m3]	viscosity [mPa·s]
303.15 K	876.6	0.463
313.15 K	865.65	0.4
323.15 K	854.3	0.372

C1CCOC1 [tetrahydrofuran] + O
[3]
Conditions	refractive index
x2 = 0	1.4048
x2 = 0.3523	1.3994
x2 = 0.5503	1.3946
x2 = 0.6772	1.387
x2 = 0.7654	1.3786
x2 = 0.8304	1.3684
x2 = 0.8801	1.3613
x2 = 0.9195	1.3546
x2 = 0.9514	1.3405
x2 = 0.9778	1.3386

[4]
Conditions	mass density, 303.15 K [kg/m3]	mass density, 313.15 K [kg/m3]	mass density, 323.15 K [kg/m3]	viscosity, 303.15 K [mPa·s]	viscosity, 313.15 K [mPa·s]	viscosity, 323.15 K [mPa·s]
x2 = 0	876.6	865.65	854.3	0.463	0.4	0.372
x2 = 0.3081	894.98	884.04	872.9	0.574	0.519	0.34
x2 = 0.5004	912.11	901.53	890.7	0.793	0.668	0.578
x2 = 0.6319	927.1	916.82	901.63	1.001	0.833	0.698
x2 = 0.7276	941.82	931.96	921.9	1.208	0.98	0.807
x2 = 0.8002	955.23	945.99	936.5	1.344	1.061	0.868
x2 = 0.8573	966.73	958.34	949.3	1.384	1.084	0.871
x2 = 0.9034	977.2	969.74	962.2	1.341	1.021	0.829
x2 = 0.9413	984.94	–	972.7	1.226	0.92	0.74
x2 = 0.973	990.31	990.31	980.8	1.003	0.803	0.641

O [water] + C1CCOC1
Conditions	refractive index
[3], x1 = 1	1.3326

[4], x1 = 1
Conditions	mass density [kg/m3]	viscosity [mPa·s]
303.15 K	–	0.754
313.15 K	991.91	0.624
323.15 K	985.7	0.544

O [water] + C1COCCO1
Conditions	refractive index
[3], x1 = 1	1.3326

Conditions	mass density [kg/m3]
[4], 313.15 K, x1 = 1	992.3

— the NIST ThermoML archive (doi:10.1021/je030196t)
